Test results published in the supplement of paper PMC10307832.

Assays:
Assay in all cases: relative viability (nuclei count vs DMSO), 5 days (fraction); higher = more cells survive
[1] = compound: CC(=O)Nc1cccc(-n2c(=O)n(C3CC3)c(=O)c3c(Nc4ccc(I)cc4F)n(C)c(=O)c(C)c32)c1 [Trametinib] + CS(=O)(=O)CCNCc1ccc(-c2ccc3ncnc(Nc4ccc(OCc5cccc(F)c5)c(Cl)c4)c3c2)o1 [Lapatinib] (partner 2 µM)
In short: (§1)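 Nuclei were stained with Hoechst during a one-step fixation (final 0.05% Triton X-100, 1% formaldehyde, 1 ug/ml Hoechst) carried out 5 days after dosing, then counted on 4× images. The cells, lung cancer lines in 1536-well plates, had been dosed by pin tool the day after seeding with one drug alone or a fixed anchor-drug dose plus five library-drug doses (not always all listed) in √10 steps. Relative viability is the nuclei count in treated wells divided by that in vehicle wells, and each value is the median of duplicate plates.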

[2] = compound: CN1C=C(C2=CC=CC=C21)/C=C\3/C4=C(C=CC=N4)NC3=O + CS(=O)(=O)N1CCN(Cc2cc3nc(-c4cccc5[nH]ncc45)nc(N4CCOCC4)c3s2)CC1 [Pictilisib] (partner 1 µM)
In short: as §1

[3] = compound: CN1C=C(C2=CC=CC=C21)/C=C\3/C4=C(C=CC=N4)NC3=O + C[C@@H](Oc1cc(-c2cnn(C3CCNCC3)c2)cnc1N)c1c(Cl)ccc(F)c1Cl [Crizotinib] (partner 1 µM)
In short: as §1

[4] = compound: CN1C=C(C2=CC=CC=C21)/C=C\3/C4=C(C=CC=N4)NC3=O + O=C(CCCCCCC(=O)Nc1ccccc1)NO [Vorinostat] (partner 1 µM)
In short: as §1

| Cell Line | relative viability ([1]; first compound 0.0025 µM) | relative viability ([1]; first compound 0.007906 µM) | relative viability ([1]; first compound 0.025 µM) | relative viability ([1]; first compound 0.07906 µM) | relative viability ([1]; first compound 0.25 µM) | relative viability ([2]; first compound 0.02 µM) | relative viability ([2]; first compound 0.06325 µM) | relative viability ([2]; first compound 0.2 µM) | relative viability ([2]; first compound 0.6325 µM) | relative viability ([2]; first compound 2 µM) | relative viability ([3]; first compound 0.02 µM) | relative viability ([3]; first compound 0.06325 µM) | relative viability ([3]; first compound 0.2 µM) | relative viability ([3]; first compound 0.6325 µM) | relative viability ([3]; first compound 2 µM) | relative viability ([4]; first compound 0.02 µM) | relative viability ([4]; first compound 0.06325 µM) | relative viability ([4]; first compound 0.2 µM) | relative viability ([4]; first compound 0.6325 µM) | relative viability ([4]; first compound 2 µM) |
| --- | --- | --- | --- | --- | --- | --- | --- | --- | --- | --- | --- | --- | --- | --- | --- | --- | --- | --- | --- | --- |
| NCI-H2085 | 0.783 | 0.707 | 0.426 | 0.668 | 0.549 | 0.307 | 0.427 | 0.39 | 0.458 | 0.534 | 0.738 | 0.892 | 0.752 | 0.868 | 0.803 | 0.723 | 0.757 | 0.746 | 0.735 | 0.784 |
| NCI-H2087 | 1.1 | 0.665 | 0.496 | 0.254 | 0.18 | 0.942 | 0.833 | 0.769 | 0.793 | 0.951 | 0.96 | 0.701 | 1.1 | 0.889 | 0.868 | 0.73 | 0.603 | 0.551 | 0.753 | 0.838 |
| NCI-H2126 | 0.721 | 0.675 | 0.46 | 0.703 | 0.718 | 0.486 | 0.492 | 0.431 | 0.431 | 0.415 | 0.994 | 1 | 1.06 | 1.03 | 1.02 | 0.876 | 0.719 | 0.744 | 0.748 | 0.802 |
| NCI-H2170 | 0.311 | 0.258 |  | 0.261 | 0.246 |  | 0.312 | 0.235 | 0.317 | 0.242 |  | 1.13 | 1.35 | 1.16 | 1.15 | 0.746 | 0.762 | 0.747 | 0.614 | 0.758 |
| NCI-H2228 | 0.881 | 0.513 | 0.765 | 0.734 | 0.286 | 0.378 | 0.371 |  | 0.327 | 0.27 | 0.386 | 0.489 |  | 0.373 | 0.425 | 0.85 | 0.646 | 0.503 | 0.704 | 0.508 |
